Source: US20250215101A1, “DR5 Agonist and PLK1 Inhibitor or CDK Inhibitor Combination Therapy” (Inhibrx Biosciences, Inc., priority 2022, published 2025)

Assays:
[1] = test system: OUMS-27; assay: Cell viability (CellTiter-Glo) cytotoxicity assay, INBRX-109 x CDK9 or MCL-1 inhibitor matrix, 48 h, chondrosarcoma line
Experimental: (§1) On day 1, cells were seeded as follows. Monolayer cultures of each cell line (chondrosarcoma: CAL-78, OUMS-27, SW1353, and H-EMC-SS; colorectal cancer: SW620; and synovial sarcoma: HS-SY-II) were harvested for compound screening. Culture medium was aspirated, and the cells were washed once with PBS. Accutase was added and flasks were incubated at 37° C. until cells became detached. An equal volume of complete medium was added to quench the Accutase, and the cells were then pipetted up and down several times to generate a homogenous single cell suspension. The density and viability of cells was determined by Trypan Blue using a TC20 Automated Cell Counter. Experimental cells were resuspended to a concentration of 0.17×10^6/mL in Eagle's Minimum Essential Medium (EMEM)/10% FBS/Anti-Anti media (complete EMEM) and seeded in the inner wells of 384-well luminescence plates at 15 mL/well (2,500/well final). Each cell line was plated in duplicate on separate plates. Outer wells were filled with 50 mL PBS, then plates were incubated in a humidified temperature-controlled 37° C. tissue culture incubator at 5% CO2 overnight for 16 hours.
(§2) These test articles were added, in duplicate, to each cell line. The plates were then centrifuged at 400×g for 1 minute, then incubated in a 37° C. humidity-controlled tissue culture incubator (5% CO2) for 48 hours.
(§3) After incubation with the test articles, viability measurements were taken, briefly. Plates were equilibrated to room temperature for 10 minutes, then 25 μL of CellTiter-Glo 2.0® was added to each well. Plates were spun for 1 minute at 400×g, then covered and incubated in the dark for 10 minutes at room temperature. Any visible bubbles were removed with 100% ethanol vapor, then luminescence (RLU) was read on the Spectra Max M5e plate reader, using the 384-well opaque plate setting and SoftMax® Pro v5.4 software with an integration time of 50 milliseconds. To determine the effect of test articles on cell viability, raw RLU values were exported to Excel and percent survival was calculated as a percentage of vehicle control (0.5% DMSO in EMEM), where the vehicle control is set at 100%. Data was graphed in GraphPad Prism 9.

[2] = test system: HS-SY-II; assay: Cell viability (CellTiter-Glo) cytotoxicity assay, INBRX-109 x CDK9 or MCL-1 inhibitor matrix, 48 h, synovial sarcoma line
Experimental: as §1, §2, §3

[3] = test system: CAL-78; assay: Cell viability (CellTiter-Glo) cytotoxicity assay, INBRX-109 x CDK9 or MCL-1 inhibitor matrix, 48 h, chondrosarcoma line
Experimental: as §1, §2, §3

[4] = test system: SW620; assay: Cell viability (CellTiter-Glo) cytotoxicity assay, INBRX-109 x CDK9 or MCL-1 inhibitor matrix, 48 h, colorectal cancer line
Experimental: as §1, §2, §3

[5] = test system: H-EMC-SS; assay: Cell viability (CellTiter-Glo) cytotoxicity assay, INBRX-109 x CDK9 or MCL-1 inhibitor matrix, 48 h, chondrosarcoma line
Experimental: as §1, §2, §3

[6] = test system: SW1353; assay: as above
Experimental: as §1, §2, §3

[7] = test system: CAL-78, OUMS-27, SW1353, H-EMC-SS, SW620, HS-SY-II; assay: Cytotoxicity screens INBRX-109 + CDK9 or MCL-1 inhibitor, summary over the cell lines; assay type: cell-based; conditions: combination with INBRX-109
Excerpt: Data was graphed in GraphPad Prism 9.

[8] = biological target: CDK9 (Homo sapiens, UniProt P50750); conditions: cited from earlier work
Sequence of CDK9 (P50750 whole entry): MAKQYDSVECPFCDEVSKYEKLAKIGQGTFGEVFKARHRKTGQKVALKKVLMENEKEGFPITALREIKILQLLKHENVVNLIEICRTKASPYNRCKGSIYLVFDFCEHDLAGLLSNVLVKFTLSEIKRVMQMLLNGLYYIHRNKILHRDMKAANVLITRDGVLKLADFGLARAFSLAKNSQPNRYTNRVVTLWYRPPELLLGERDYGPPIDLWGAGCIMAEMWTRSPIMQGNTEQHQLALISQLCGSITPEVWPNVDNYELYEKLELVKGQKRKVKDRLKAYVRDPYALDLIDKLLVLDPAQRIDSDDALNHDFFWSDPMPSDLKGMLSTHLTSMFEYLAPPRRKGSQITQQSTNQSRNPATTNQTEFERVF
Sequence of CDK9 (O60563 whole entry partner): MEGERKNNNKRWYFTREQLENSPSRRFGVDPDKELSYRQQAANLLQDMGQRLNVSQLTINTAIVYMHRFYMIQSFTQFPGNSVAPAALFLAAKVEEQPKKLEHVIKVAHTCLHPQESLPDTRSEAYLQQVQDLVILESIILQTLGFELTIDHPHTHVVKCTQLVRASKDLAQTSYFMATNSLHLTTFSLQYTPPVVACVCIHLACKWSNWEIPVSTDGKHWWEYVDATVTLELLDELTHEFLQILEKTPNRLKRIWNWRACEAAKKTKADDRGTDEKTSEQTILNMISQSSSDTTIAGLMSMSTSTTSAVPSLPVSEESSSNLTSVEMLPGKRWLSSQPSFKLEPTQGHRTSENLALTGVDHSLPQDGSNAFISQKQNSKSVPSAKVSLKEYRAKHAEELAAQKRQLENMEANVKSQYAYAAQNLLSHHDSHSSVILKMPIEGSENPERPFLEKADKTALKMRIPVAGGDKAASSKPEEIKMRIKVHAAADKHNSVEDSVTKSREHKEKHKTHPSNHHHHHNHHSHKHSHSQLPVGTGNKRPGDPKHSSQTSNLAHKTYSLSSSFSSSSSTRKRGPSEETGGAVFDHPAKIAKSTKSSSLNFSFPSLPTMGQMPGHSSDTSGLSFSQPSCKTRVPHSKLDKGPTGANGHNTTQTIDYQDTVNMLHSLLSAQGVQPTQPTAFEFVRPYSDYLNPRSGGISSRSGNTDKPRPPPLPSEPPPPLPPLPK

[9] = concentrations of 125 nM or higher

## COc1cc(F)ccc1-c1cc(Nc2cc(CS(C)(=N)=O)ccn2)ncc1F (centres unmarked) [Enitociclib]
[1]; enitociclib + 1 nM INBRX-109
  EC50: 90.4 nM
  Max Cytotox: 81%
[1]; enitociclib only
  EC50: 51 nM
  Max Cytotox at 125 nM: 25.6%
[2]; enitociclib + 1 nM INBRX-109
  EC50: 89.1 nM
  Max Cytotox: 94%
[2]; enitociclib only
  EC50: 74 nM
  Max Cytotox at 125 nM: 73.2%
[3]; enitociclib + 1 nM INBRX-109
  EC50: 108 nM
  Max Cytotox: 90.8%
[3]; enitociclib only
  EC50: 144 nM
  Max Cytotox at 125 nM: 10.9%
[4]; enitociclib + 1 nM INBRX-109
  EC50: 39.3 nM
  Max Cytotox: 97.6%
[4]; enitociclib only
  EC50: 25.8 nM
  Max Cytotox at 125 nM: 27.3%
[5]; enitociclib + 1 nM INBRX-109
  EC50: 114 nM
  Max Cytotox: 99.2%
[5]; enitociclib only
  EC50: 124 nM
  Max Cytotox at 125 nM: 15.8%
[6]; enitociclib + 1 nM INBRX-109
  EC50: 103 nM
  Max Cytotox: 64.6%
[6]; enitociclib only
  EC50: 102 nM
  Max Cytotox at 125 nM: 28.0%
[7]
  cell killing by the combination: increased cell killing on nearly every cancer cell line tested
[7]; [9]
  combination effect (shift in the killing curves of INBRX-109): synergistic effect

## CN1CC[C@H](c2c(O)cc(O)c3c(=O)cc(-c4ccccc4Cl)oc23)[C@H](O)C1 [Flavopiridol]
[1]; flavopiridol + 1 nM INBRX-109
  EC50: 118 nM
  Max Cytotox: 87.8%
[1]; flavopiridol only
  EC50: 109 nM
  Max Cytotox at 125 nM: 24.0%
[2]; flavopiridol + 1 nM INBRX-109
  EC50: 103 nM
  Max Cytotox: 95.1%
[2]; flavopiridol only
  EC50: 108 nM
  Max Cytotox at 125 nM: 55.8%
[3]; flavopiridol + 1 nM INBRX-109
  EC50: 115 nM
[3]; flavopiridol only
  EC50: 146 nM
  Max Cytotox at 125 nM: 10.9%
[4]; flavopiridol + 1 nM INBRX-109
  EC50: 50.2 nM
  Max Cytotox: 98.7%
[4]; flavopiridol only
  EC50: Unstable
  Max Cytotox at 125 nM: 21.7%
[5]; flavopiridol + 1 nM INBRX-109
  EC50: 53.9 nM
  Max Cytotox: 99%
[5]; flavopiridol only
  EC50: 114 nM
  Max Cytotox at 125 nM: 21.9%
[6]; flavopiridol + 1 nM INBRX-109
  EC50: 133 nM
  Max Cytotox: 88.3%
[6]; flavopiridol only
  EC50: 202 nM
  Max Cytotox at 125 nM: 21.7%
[7]
  cell killing by the combination: increased cell killing on nearly every cancer cell line tested
[7]; [9]
  combination effect (shift in the killing curves of INBRX-109): synergistic effect

## COC[C@@H](C)N[C@H]1CC[C@H](Nc2cc(-c3cccc(NCC4(C#N)CCOCC4)n3)c(Cl)cn2)CC1 [NVP-2]
[1]; NVP-2 + 1 nM INBRX-109
  EC50: 16.3 nM
  Max Cytotox: 88.5%
[1]; NVP-2 only
  EC50: 9 nM
  Max Cytotox at 125 nM: 20.4%
[3]; NVP-2 + 1 nM INBRX-109
  EC50: 26.4 nM
  Max Cytotox: 92.4%
[3]; NVP-2 only
  EC50: 23.2 nM
  Max Cytotox at 125 nM: 42.2%
[4]; NVP-2 + 1 nM INBRX-109
  EC50: 4.91 nM
  Max Cytotox: 98.7%
[4]; NVP-2 only
  EC50: 12.6 nM
  Max Cytotox at 125 nM: 39.5%
[5]; NVP-2 + 1 nM INBRX-109
  EC50: 24.5 nM
  Max Cytotox: 98.7%
[5]; NVP-2 only
  EC50: 23.5 nM
  Max Cytotox at 125 nM: 46.4%
[6]; NVP-2 + 1 nM INBRX-109
  EC50: 22.3 nM
  Max Cytotox: 79.5%
[6]; NVP-2 only
  EC50: 30.6 nM
  Max Cytotox at 125 nM: 52.8%
[7]
  cell killing by the combination: increased cell killing on nearly every cancer cell line tested
[7]; concentrations higher than 25 nM
  combination effect (shift in the killing curves of INBRX-109): synergistic effect

## N[C@H]1CC[C@H](Nc2cc(-c3cccc(NCc4cccc(F)c4)n3)c(Cl)cn2)CC1 [i-CDK9]
[8]
  selectivity for CDK9 over other CDKs: 600 fold
